# In patent US20240059703A1 (AMGEN INC., priority 2021, published 2024):
# Target: KRAS G12C (Homo sapiens (Human), UniProt P01116, C118A/G12C)
# Test: 2 h coupled exchange assay
# Format: biochemical
# Conditions: Avg 2 h Coupled exchange IC50, 2 h compound pre-incubation
# Procedure: The term “2 h coupled exchange assay” or “20 h coupled exchange assay” as used herein refers to the assay described in the Section entitled “BIOLOGICAL EVALUATION.”
# Chain of KRAS G12C (P01116 other isoform, or with tags, fused parts or gaps G12C/C118A): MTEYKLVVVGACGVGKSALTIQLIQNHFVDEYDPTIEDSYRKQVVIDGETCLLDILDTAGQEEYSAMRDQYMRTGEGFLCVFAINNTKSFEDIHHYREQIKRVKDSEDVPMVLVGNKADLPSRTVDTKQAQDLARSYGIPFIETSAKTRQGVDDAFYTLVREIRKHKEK
row,IC50 [µM],SMILES
1,0.886,"C=CC(=O)N1CC2(CCN(c3nc4c(c(-c5cccc6cn[nH]c56)c3C#N)C[C@H]3C[C@@H]4C3(C)C)C2)C1 (single isomer, unassigned) [Example 14-28]"
2,3.04,"C=CC(=O)N1CC2(CCN(c3nc4c(c(-c5cc(O)ccc5C)c3C)COC(C)(C)C4)C2)C1 (single isomer, unassigned) [Example 14-32, (P)-1-(6-(4-(5-hydroxy-2-methylphenyl)-3,7,7-trimethyl-7,8-dihydro-5H-pyrano[4,3-b]pyridin-2-yl)-2,6-diazaspiro[3.4]octan-2-yl)-2-propen-1-one]"

# Same assay, conditions: Avg 2 h Coupled exchange IC50, 2 h compound pre-incubation, SOS-mediated nucleotide exchange
row,SMILES,IC50 [µM]
1,"C=CC(=O)N1CC2(CCN(c3nc4c(c(-c5c(C)ccc6cnn(C)c56)c3C#N)COC4(C)C)C2)C1 (single isomer, unassigned) [Example 13-57, (M)-4-(1,6-dimethyl-1H-indazol-7-yl)-7,7-dimethyl-2-(2-(2-propenoyl)-2,6-diazaspiro[3.4]octan-6-yl)-5,7-dihydrofuro[3,4-b]pridine-3-carbonitrile]",0.361
2,"C=CC(=O)N1CC2(CCN(c3nc4c(c(-c5c(C)ccc6cnn(C)c56)c3C#N)COC(C)(C)C4)C2)C1 (single isomer, unassigned) [Example 13-59, (M)-4-(1,6-dimethyl-1H-indazol-7-yl)-7,7-dimethyl-2-(2-(2-propenoyl)-2,6-diazaspiro[3.4]octan-6-yl)-7,8-dihydro-5H-pyrano[4,3-b]pyridine-3-carbonitrile]",32.2
3,"C=CC(=O)N1CC2(CCN(c3nc4c(c(-c5c(O)cccc5Cl)c3C#N)C[C@H]3C[C@@H]4C3)C2)C1 (single isomer, unassigned) [Example 13-66]",76
4,"C=CC(=O)N1CC2(CCN(c3nc4c(c(-c5c(O)cccc5Cl)c3C#N)C[C@H]3C[C@@H]4C3)C2)C1 (single isomer, unassigned) [Example 13-67]",0.506
5,"C=CC(=O)N1CC2(CCN(c3nc4c(c(-c5cc(O)cc6ccccc56)c3C#N)CC(C)(C)C4)C2)C1 (single isomer, unassigned) [Example 13-68, (M)-4-(3-hydroxy-1 naphthalenyl)-6,6-dimethyl-2-(2-(2-propenoyl)-2,6-diazaspiro[3.4]octan-6-yl)-6,7-dihydro-5H-cyclopenta[b]pyridine-3-carbonitrile]",27
6,"C=CC(=O)N1CC2(CCN(c3nc4c(c(-c5cc(O)c(F)c6ccccc56)c3C#N)CC[C@H]3C[C@@H]43)C2)C1 (single isomer, unassigned) [Example 13-73]",19.3
7,"C=CC(=O)N1CC2(CCN(c3nc4c(c(-c5cc(O)c(F)c6ccccc56)c3C#N)CC[C@H]3C[C@@H]43)C2)C1 (single isomer, unassigned) [Example 13-75]",17
8,"C=CC(=O)N1CC2(CCN(c3nc4c(c(-c5cc(O)c(F)c6ccccc56)c3C#N)COC(C)(C)C4)C2)C1 (single isomer, unassigned) [Example 13-77, (M)-4-(4-fluoro-3-hydroxy-1-naphthalenyl)-7,7-dimethyl-2-(2-(2-propenoyl)-2,6-diazaspiro[3.4]octan-6-yl)-7,8-dihydro-5H-pyrano[4,3-b]pyridine-3-carbonitrile]",35.6
9,"CN(C)C/C=C/C(=O)N1CC2(CCN(c3nc4c(c(-c5cc(O)cc6ccccc56)c3C#N)CC[C@H]3C[C@@H]43)C2)C1 (single isomer, unassigned) [Example 13-88]",0.143
10,"C=CC(=O)N1CC2(CCN(c3nc4c(c(-c5c(C)c(C)cc6cnn(C)c56)c3C#N)COC(C)(C)C4)C2)C1 (single isomer, unassigned) [Example 13-91, (M)-7,7-dimethyl-2-(2-(2-propenoyl)-2,6-diazaspiro[3.4]octan-6-yl)-4-(1,5,6-trimethyl-1H-indazol-7-yl)-7,8-dihydro-5H-pyrano[4,3-b]pyridine-3-carbonitrile]",9.27
11,"C=CC(=O)N1CC2(CCN(c3nc4c(c(-c5c(C)ccc6cnn(C)c56)c3C#N)CCC4(C)C)C2)C1 (single isomer, unassigned) [Example 13-102, (P)-2-(2-acryloyl-2,6-diazaspiro[3.4]octan-6-yl)-4-(1,6-dimethyl-1H-indazol-7-yl)-7,7-dimethyl-6,7-dihydro-5H-cyclopenta[b]pyridine-3-carbonitrile]",140
12,"C=CC(=O)N1CC2(CCN(c3nc4c(c(-c5c(C)ccc6cnn(C)c56)c3C#N)CCC4(C)C)C2)C1 (single isomer, unassigned) [Example 13-103, (M)-2-(2-acryloyl-2,6-diazaspiro[3.4]octan-6-yl)-4-(1,6-dimethyl-1H-indazol-7-yl)-7,7-dimethyl-6,7-dihydro-5H-cyclopenta[b]pyridine-3-carbonitrile]",0.283
13,"C=CC(=O)N1CC2(CCN(c3nc4c(c(-c5c(C)ccc6cnn(C)c56)c3C#N)C[C@H]3C[C@@H]4C3(C)C)C2)C1 (single isomer, unassigned) [Example 13-105]",14.7
14,"C=CC(=O)N1CC2(CCN(c3nc4c(c(-c5c(C)ccc6[nH]ncc56)c3C#N)C[C@H]3C[C@@H]4C3(C)C)C2)C1 (single isomer, unassigned) [Example 13-114]",1.38
15,"C=CC(=O)N1CC2(CCN(c3nc4c(c(-c5c(C)ccc6cnn(C)c56)c3C#N)C[C@H]3C[C@@H]4C3)C2)C1 (single isomer, unassigned) [Example 13-117]",15.8
16,"C=CC(=O)N1CC2(CCN(c3nc4c(c(-c5c(C)ccc6cnn(C)c56)c3C#N)CO[C@@H](C3CC3)C4)C2)C1 (single isomer, unassigned) [Example 13-119]",6.7
17,"C=CC(=O)N1CC2(CCN(c3nc4c(c(-c5c(C)ccc6cnn(C)c56)c3C#N)CO[C@H](C3CC3)C4)C2)C1 (single isomer, unassigned) [Example 13-120]",9.19
18,"C=CC(=O)N1CC2(CCN(c3nc4c(c(-c5c(C)ccc6cnn(C)c56)c3C#N)CO[C@H](C3CC3)C4)C2)C1 (single isomer, unassigned) [Example 13-121]",0.849
19,"C=CC(=O)N1CC2(CCN(c3nc4c(c(-c5cnccc5C)c3C#N)C[C@H]3C[C@@H]4C3(C)C)C2)C1 (single isomer, unassigned) [Example 13-123]",0.856
20,"C=CC(=O)N1CC2(CCN(c3nc4c(c(-c5cnccc5C)c3C#N)C[C@H]3C[C@@H]4C3(C)C)C2)C1 (single isomer, unassigned) [Example 13-124]",45.5
21,"C=CC(=O)N1CC2(CCN(c3nc4c(c(-c5cc(O)ccc5C)c3C#N)C[C@H]3C[C@@H]4C3)C2)C1 (single isomer, unassigned) [Example 13-125]",12.6
22,"C=CC(=O)N1CC2(CCN(c3nc4c(c(-c5cc(O)ccc5C)c3C#N)COC(C)(C)C4)C2)C1 (single isomer, unassigned) [Example 13-127, 4-(5-hydroxy-2-methylphenyl)-7,7-dimethyl-2-(2-(2-propenoyl)-2,6-diazaspiro[3.4]octan-6-yl)-7,8-dihydro-5H-pyrano[4,3-b]pyridine-3-carbonitrile]",153
23,"C=CC(=O)N1CC2(CCN(c3nc4c(c(-c5cc(O)cc6ccccc56)c3C#N)C[C@H]3C[C@@H]4C3(C)C)C2)C1 (single isomer, unassigned) [Example 13-130]",13.1
24,"C=CC(=O)N1CC2(CCN(c3nc4c(c(-c5c(C)ccc6cnn(C)c56)c3C#N)[C@H]3C[C@@H](C4)C3)C2)C1 (single isomer, unassigned) [Example 13-132]",24.4
25,"C=CC(=O)N1CC2(CCN(c3nc4c(c(-c5c(C)ccc6cnn(C)c56)c3C#N)CC[C@@H]3C[C@H]43)C2)C1 (single isomer, unassigned) [Example 13-134, (6a,7a)-4-(1,6-dimethyl-1H-indazol-7-yl)-2-(2-(2-propenoyl)-2,6-diazaspiro[3.4]octan-6-yl)-6,6a,7,7a-tetrahydro-5H-cyclopropa[h]quinoline-3-carbonitrile]",39.3
26,"C=CC(=O)N1CC2(CCN(c3nc4c(c(-c5c(C)ccc6cnn(C)c56)c3C#N)CC[C@H]3C[C@@H]43)C2)C1 (single isomer, unassigned) [Example 13-135, (6a,7a)-4-(1,6-dimethyl-1H-indazol-7-yl)-2-(2-(2-propenoyl)-2,6-diazaspiro[3.4]octan-6-yl)-6,6a,7,7a-tetrahydro-5H-cyclopropa[h]quinoline-3-carbonitrile]",62.5

# Continued, values first:
row,IC50 [µM],SMILES
1,0.129,"C=CC(=O)N1CC2(CCN(c3nc4c(c(-c5c(C)ccc6[nH]ncc56)c3C#N)[C@H]3CC[C@@H]4C3)C2)C1 (single isomer, unassigned) [Example 14-5]"
2,1.42,"C=CC(=O)N1CC2(CCN(c3nc4c(c(-c5c(C)ccc6[nH]ncc56)c3C#N)[C@@H]3CC[C@H]4C3)C2)C1 (single isomer, unassigned) [Example 14-6]"
3,2.57,"C=CC(=O)N1CC2(CCN(c3nc4c(c(-c5c(C)ccc6[nH]ncc56)c3C#N)[C@H]3CC[C@@H]4C3)C2)C1 (single isomer, unassigned) [Example 14-8]"
4,1.14,"C=CC(=O)N1CC2(CCN(c3nc4c(c(-c5cc(O)ccc5C)c3C#N)[C@@H]3CC[C@H]4C3)C2)C1 (single isomer, unassigned) [Example 14-10]"
5,0.422,"C=CC(=O)N1CC2(CCN(c3nc4c(c(-c5cc(O)ccc5C)c3C#N)[C@H]3CC[C@@H]4C3)C2)C1 (single isomer, unassigned) [Example 14-12]"
6,2.84,"C=CC(=O)N1CC2(CCN(c3nc4c(c(-c5cc(O)ccc5C)c3C#N)[C@H]3CC[C@@H]4C3)C2)C1 (single isomer, unassigned) [Example 14-13]"
7,0.108,"C=CC(=O)N1CC2(CCN(c3nc4c(c(-c5cc(O)ccc5C)c3C#N)[C@H]3CC[C@@H]4C3)C2)C1 (single isomer, unassigned) [Example 14-14]"
8,250,"C=CC(=O)N1CC2(CCN(c3nc4c(c(-c5c(C)ccc6cnn(C)c56)c3C#N)[C@@H]3CC[C@H]4C3)C2)C1 (single isomer, unassigned) [Example 14-16]"
